The source of these data is ChEMBL document CHEMBL5096175, “An insight into the medicinal attributes of berberine derivatives: A review” (Bioorg Med Chem, 2021).

One test deals with HCT-116. Put plainly: Antiproliferative activity against human HCT-116 cells assessed as inhibition of cell proliferation incubated for 48 hrs by MTT assay. As to conditions: HCT-116, 48 h. It counts as functional, cell-based.
The next test concerns CCRF S-180. Put plainly: Antiproliferative activity against mouse CCRF S-180 cells assessed as inhibition of cell proliferation incubated for 48 hrs by MTT assay. It counts as functional, cell-based. As to conditions: CCRF S-180, 48 h. A general note: Tetrazolium dyes change colour on reduction, which living cells bring about.
Another test concerns SGC-7901. Briefly: Antiproliferative activity against human SGC-7901 cells assessed as inhibition of cell proliferation incubated for 48 hrs by MTT assay. The conditions noted are these: SGC-7901, 48 h. It counts as functional, cell-based.
In the next test the test system is LS174T. Briefly: Antiproliferative activity against human LS174T cells assessed as inhibition of cell proliferation incubated for 48 hrs by MTT assay. It counts as functional, cell-based.
A further test deals with MKN-28. Put plainly: Antiproliferative activity against human MKN-28 cells assessed as inhibition of cell proliferation incubated for 48 hrs by MTT assay. It counts as functional, cell-based. As to conditions: MKN-28, 48 h.
The next test relates to ECa-109 cell line. Briefly: Antiproliferative activity against human Eca-109 cells assessed as inhibition of cell proliferation incubated for 48 hrs by MTT assay. It counts as functional, cell-based. As to conditions: ECa-109, 48 h.
The subject of a further test is SW-620. Put plainly: Antiproliferative activity against human SW620 cells assessed as inhibition of cell proliferation incubated for 48 hrs by MTT assay. It counts as functional, cell-based. As to conditions: SW-620, 48 h.
The subject of test [1] is HCT-8. Put plainly: Antiproliferative activity against human HCT-8 cells assessed as inhibition of cell proliferation incubated for 48 hrs by MTT assay. The conditions noted are these: HCT-8, 48 h. It counts as functional, cell-based.
A further test concerns A549. Briefly: Antiproliferative activity against human A549 cells assessed as inhibition of cell growth incubated for 72 hrs by MTT assay. As to conditions: A549, 72 h. It counts as functional, cell-based.
The test system of the next test is Bel-7402. Briefly: Antiproliferative activity against human Bel-7402 cells assessed as inhibition of cell growth incubated for 72 hrs by MTT assay. As to conditions: Bel-7402, 72 h. It counts as functional, cell-based.
For test [2], the system named is HeLa. Put plainly: Antiproliferative activity against human HeLa cells assessed as inhibition of cell growth incubated for 72 hrs by MTT assay. It counts as functional, cell-based.
For test [3], the system named is HCT-8. Briefly: Antiproliferative activity against human HCT-8 cells assessed as inhibition of cell growth incubated for 72 hrs by MTT assay. The conditions noted are these: HCT-8, 72 h. It counts as functional, cell-based.
The next test deals with HEK-293T. Put plainly: Antiinflammatory activity against HEK-293T cells assessed as inhibition of TNF-alpha induced NF-kappaB activation at 5 uM preincubated for 2 hrs followed by TNFalpha stimulation for 6 hrs by dual-luciferase reporter assay relative to control. It counts as functional. The conditions noted are these: Homo sapiens, time 8 hrs. Background: In a reporter assay the amount or activity of a reporter protein is the signal.

The next test relates to Ca-Ski. Briefly: Anticancer activity against human Ca-Ski cells assessed as inhibition of cell growth by Sulforhodamine B colorimetric assay. It counts as functional, cell-based. A general note: The SRB assay estimates cell density from bound dye.
Test [4] deals with HeLa. Briefly: Cytotoxicity against human HeLa cells assessed as inhibition of cell growth by Sulforhodamine B colorimetric assay. It counts as functional, cell-based.
A short description of test [5]: Inhibition of hypoxia induced HIF-1 transcriptional activity in human T47D cells incubated for 1 hr followed by exposure to hypoxic condition for 20 hrs by renilla and HRE-luciferase based dual-luciferase reporter assay. It counts as cell-based.
A further test relates to MCF7. Briefly: Antiproliferative activity against human MCF7 cells assessed as inhibition of cell growth incubated for 72 hrs by MTT assay. It counts as functional, cell-based. As to conditions: MCF7, 72 h.
A short description of test [6]: Antioxidant activity assessed as DPPH radical scavenging activity measured after 25 mins by UV visible spectrophotometeric analysis. It counts as functional.
The nature of test [7]: Antioxidant activity assessed as ABTS radical scavenging activity incubated for 10 mins by UV spectrophotometeric analysis. It counts as functional.
The next test has as its system Candida albicans. Briefly: Antifungal activity against Candida albicans ATCC 90023 assessed as inhibition of fungal growth incubated for 24 hrs. It counts as functional.
The subject of another test is Candida parapsilosis. Briefly: Antifungal activity against Candida parapsilosis ATCC 22019 assessed as inhibition of fungal growth incubated for 24 hrs. It counts as functional. As to conditions: Lodderomyces parapsilosis.
The subject of the next test is Clostridium perfringens. Briefly: Antibacterial activity against Clostridium perfringens CICC 22949 assessed as inhibition of bacterial growth incubated for 24 hrs by broth microdilution method. It counts as functional.
Another test relates to Salmonella enteritidis. Put plainly: Antibacterial activity against Salmonella enteritidis CICC 24119 assessed as inhibition of bacterial growth incubated for 24 hrs by broth microdilution method. It counts as functional, Salmonella enterica subsp. enterica serovar Enteritidis. As to conditions: Salmonella enterica.
The subject of test [8] is Staphylococcus aureus. Put plainly: Antibacterial activity against methicillin-resistant Staphylococcus aureus ATCC 700699 assessed as inhibition of bacterial growth incubated for 24 hrs by broth microdilution method. It counts as functional.
The subject of another test is Shigella dysenteriae. Put plainly: Antibacterial activity against Shigella dysenteriae CICC 23829 assessed as inhibition of bacterial growth incubated for 24 hrs by broth microdilution method. It counts as functional.
A further test deals with Streptococcus pyogenes. Put plainly: Antibacterial activity against Streptococcus pyogenes CICC 10356 assessed as inhibition of bacterial growth incubated for 24 hrs by broth microdilution method. It counts as functional.
The subject of test [9] is Staphylococcus aureus. Put plainly: Antibacterial activity against Staphylococcus aureus CICC 23656 assessed as inhibition of bacterial growth incubated for 24 hrs by broth microdilution method. It counts as functional.
The test system of the next test is Escherichia coli. Put plainly: Antibacterial activity against Escherichia coli CICC 10389 assessed as inhibition of bacterial growth incubated for 24 hrs by broth microdilution method. It counts as functional.
The test system of the next test is Pseudomonas aeruginosa. Put plainly: Antibacterial activity against Pseudomonas aeruginosa CICC 10419 assessed as inhibition of bacterial growth incubated for 24 hrs by broth microdilution method. It counts as functional.
Test [10] is described as follows: Antioxidant activity assessed as ABTS radical cation scavenging activity incubated for 10 mins under dark condition. It counts as functional.
Test [11] in a line: Antioxidant activity assessed as DPPH radical scavenging potential measured for 30 mins optical density based analysis. It counts as functional.

≈ marks a conversion by molar mass, not a printed value.

For orientation: IC50 means the concentration at which inhibition is half-maximal. The inhibition is the drop in the measured response relative to a control, in per cent. For orientation: CC50 means the concentration that lowers cell viability or growth by half. In general, MIC refers to the least concentration at which growth counts as inhibited.

With `COc1ccc2c(CC(=O)ON[C@@H](CSCc3ccccc3)C(=O)OCc3ccccc3)c3[n+](cc2c1OC)CCc1cc2c(cc1-3)OCO2`, the IC50 in the test with HCT-116, in the test with CCRF S-180, in the test with SGC-7901, in the test with LS174T, in the test on MKN-28 and in the test with ECa-109 cell line was 15 µM each time. Besides, the IC50 in the test on SW-620 and in the test on HCT-8 [1] was 15 µM throughout.
`CCCCCCN(CCCCCC)c1cc(OC)c(OC)c2c[n+]3c(cc12)-c1cc2c(cc1CC3)OCO2`: the IC50 with A549, in the test with Bel-7402, in the test with HeLa [2] and in the test on HCT-8 [3] was 0.26 µM throughout.
For the compound `CCCC(CCC)C(=O)Oc1c(OC)ccc2cc3[n+](cc12)CCc1cc2c(cc1-3)OCO2`, the inhibition at 5 µM in the test with HEK-293T is more than 90%.
Still for that read-out and setting: under `COc1ccc2cc3[n+](cc2c1OC(=O)C[C@@H]1C[C@H]2CC[C@@H]1C2)CCc1cc2c(cc1-3)OCO2` stands more than 90%.
`COc1cc(CN2CCN(C(=O)c3ccco3)CC2)c2cc3[n+](cc2c1O)CCc1cc2c(cc1-3)OCO2`: in the test with Ca-Ski, the CC50 was 344 µM and the IC50 is 6.11 µM.
With `COc1cc(CN2CCN(c3cccc4ccccc34)CC2)c2cc3[n+](cc2c1O)CCc1cc2c(cc1-3)OCO2`, in the test with HeLa [4], the CC50 worked out at 478 µM and the IC50 came to 8.31 µM.
For the compound `COc1cc(-c2ccc(-c3ccccc3)cc2)c2cc3[n+](cc2c1OC)CCc1cc2c(cc1-3)OCO2`, the IC50 came to 0.74 µM in test [5] and 0.98 µM in the test on MCF7.
Regarding `COc1ccc2cc3[n+](cc2c1OCCCCCn1ccc2ccccc21)CCc1cc2c(cc1-3)OCO2`, the IC50 in test [6] was 17.1 µM; in [7], 9.64 µM.
For the compound `CCCCCCOc1c(OC)cc(/C=C2\SC(=O)NC2=O)c2c1CN1CCc3cc4c(cc3C1C2)OCO4` (configuration not stated), the figures for the minimum inhibitory concentration (MIC) in the test on Candida albicans and in the test with Candida parapsilosis were 15 µM (≈ 8.05 µg/mL) and 60 µM (≈ 32.2 µg/mL), respectively.
Consider `COc1ccc2cc3[n+](cc2c1OC(=O)c1ccc(C(C)(C)C)cc1)CCc1cc2c(cc1-3)OCO2`, for which the inhibition at 5 µM with HEK-293T was more than 90%.
Take `COc1ccc2cc3[n+](cc2c1OCc1ccc(C#N)cc1)CCc1cc2c(cc1-3)OCO2`: the MIC in the test with Clostridium perfringens, in the test on Salmonella enteritidis, with Staphylococcus aureus [8], in the test with Shigella dysenteriae, with Streptococcus pyogenes and with Staphylococcus aureus [9] was 1.77 µM throughout. Moreover, the MIC in the test on Escherichia coli and with Pseudomonas aeruginosa was 1.77 µM each time.
As to `COc1c(OC(=O)C23CC4CC(CC(C4)C2)C3)ccc2cc3[n+](cc12)CCc1cc2c(cc1-3)OCO2`, the inhibition at 5 µM in the test with HEK-293T is more than 90%.
As for `COc1ccc2cc3[n+](cc2c1OCc1ccc([N+](=O)[O-])cc1)CCc1cc2c(cc1-3)OCO2`, the MIC with Clostridium perfringens, in the test with Salmonella enteritidis, in the test on Staphylococcus aureus [8], in the test on Shigella dysenteriae, in the test on Streptococcus pyogenes and in the test on Staphylococcus aureus [9] was 1.71 µM in each case. Further, the MIC in the test on Escherichia coli and in the test on Pseudomonas aeruginosa was 1.71 µM throughout.
On to `COc1cc(CNc2nc3ccccc3s2)c2cc3[n+](cc2c1O)CCc1cc2c(cc1-3)OCO2`, for which the IC50 turned out to be 8.48 µM in test [10] and 25.4 µM in test [11].
For `COc1ccc2cc3[n+](cc2c1OC)CCc1cc2c(cc1-3)OCO2` [BERBERINE CHLORIDE], the IC50 with HCT-116, in the test with CCRF S-180, with SGC-7901, in the test with LS174T, with MKN-28 and in the test with ECa-109 cell line was 25 µM in each case. The IC50 in the test on SW-620 and in the test with HCT-8 [1] was 25 µM in each case.
